Measurements taken from patent US20260262643A1, “HERBICIDAL BENZOXAZINES” (FMC CORPORATION, priority 2022, published 2026).

Assays:
ragweed [1] = assay: Test C preemergence; format: in vivo, Ambrosia artemisiifolia; details: 0 to 100 scale (0 no effect, 100 complete control); for Ragweed plant response rating: preemergence
Summary of the method: (§1)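 Test material, in non-phytotoxic solvent with surfactant, was sprayed on the soil directly after seeding (preemergence) or on young plants of 2–10 cm with one to two leaves (postemergence). Greenhouse, 10 days; 0–100 visual control scale.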

pigweed, palmer [2] = assay: Test C preemergence; format: in vivo, Amaranthus palmeri; details: 0 to 100 scale (0 no effect, 100 complete control); for Pigweed, Palmer plant response rating: preemergence
Summary of the method: as §1

horseweed = assay: Test C postemergence; format: in vivo, Erigeron canadensis; details: 10 days
Summary of the method: as §1

ragweed [3] = assay: Test C postemergence; format: in vivo, Ambrosia artemisiifolia; details: 10 days
Summary of the method: as §1

ryegrass, Italian [4] = assay: Test C postemergence; format: in vivo, Lolium multiflorum; details: 10 days
Summary of the method: as §1

blackgrass [5] = assay: Test C postemergence; format: in vivo, Alopecurus myosuroides; details: 10 days
Summary of the method: as §1

ryegrass, Italian [6] = assay: Test C preemergence; format: in vivo, Lolium multiflorum; details: 0 to 100 scale (0 no effect, 100 complete control); for Ryegrass, Italian plant response rating: preemergence
Summary of the method: as §1

corn [7] = assay: Test C preemergence; format: in vivo, Zea mays; details: 0 to 100 scale (0 no effect, 100 complete control); for Corn plant response rating: preemergence
Summary of the method: as §1

galium = assay: Test C postemergence; format: in vivo, Galium aparine; details: 10 days
Summary of the method: as §1

barnyardgrass [8] = assay: Test C preemergence; format: in vivo, Echinochloa crusgalli; details: 0 to 100 scale (0 no effect, 100 complete control); for Plant response rating, Barnyardgrass: Preemergence, 500 g ai/ha, visual rating after 10 days; for Barnyardgrass plant response rating: preemergence, 125 g ai/ha
Summary of the method: as §1

sedge, umbrella = assay: Test D flooded paddy test; format: in vivo, Cyperus difformis; details: 250 g ai/ha, applied to paddy water, visual rating after 13 to 14 days, scale 0 to 100 (0 no effect, 100 complete control)
Summary of the method: (§2)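 Visual ratings from 0, meaning no effect, to 100, meaning complete control, were assigned against untreated controls 13 to 14 days after compounds were added to the floodwater of pots kept 3 cm deep, with plants at the 2-leaf stage.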

barnyardgrass [9] = assay: Test D flooded paddy test; format: in vivo, Echinochloa crus-galli; details: 250 g ai/ha, applied to paddy water, visual rating after 13 to 14 days, scale 0 to 100 (0 no effect, 100 complete control)
Summary of the method: as §2

pigweed, palmer [10] = assay: Test C postemergence; format: in vivo, Amaranthus palmeri; details: 10 days
Summary of the method: as §1

barnyardgrass [11] = assay: Test C postemergence; format: in vivo, Echinochloa crusgalli; details: 10 days
Summary of the method: as §1

blackgrass [12] = assay: Test C preemergence; format: in vivo, Alopecurus myosuroides; details: 0 to 100 scale (0 no effect, 100 complete control); for Plant response rating, Blackgrass: Preemergence, 500 g ai/ha, visual rating after 10 days; for Blackgrass plant response rating: Test C, preemergence, 125 g ai/ha
Summary of the method: as §1

oat, wild [13] = assay: Test C preemergence; format: in vivo, Avena fatua; details: 0 to 100 scale (0 no effect, 100 complete control); for Oat, Wild plant response rating: preemergence
Summary of the method: as §1

oat, wild [14] = assay: Test C postemergence; format: in vivo, Avena fatua; details: 10 days
Summary of the method: as §1

kochia [15] = assay: Test C preemergence; format: in vivo, Bassia scoparia; details: 0 to 100 scale (0 no effect, 100 complete control); for Kochia plant response rating: preemergence
Summary of the method: as §1

rice = assay: Test D flooded paddy test; format: in vivo, Oryza sativa; details: 250 g ai/ha, applied to paddy water, visual rating after 13 to 14 days, scale 0 to 100 (0 no effect, 100 complete control)
Summary of the method: as §2

kochia [16] = assay: Test C postemergence; format: in vivo, Bassia scoparia; details: 10 days
Summary of the method: as §1

green foxtail [17] = assay: Test C postemergence; format: in vivo, Setaria viridis; details: 10 days
Summary of the method: as §1

ducksalad = assay: Test D flooded paddy test; format: in vivo, Heteranthera limosa; details: 250 g ai/ha, applied to paddy water, visual rating after 13 to 14 days, scale 0 to 100 (0 no effect, 100 complete control)
Summary of the method: as §2

soybean [18] = assay: Test C preemergence; format: in vivo, Glycine max; details: 0 to 100 scale (0 no effect, 100 complete control); for Soybean plant response rating: preemergence
Summary of the method: as §1

corn [19] = assay: Test C postemergence; format: in vivo, Zea mays; details: 10 days
Summary of the method: as §1

green foxtail [20] = assay: Test C preemergence; format: in vivo, Setaria viridis; details: 0 to 100 scale (0 no effect, 100 complete control); for Foxtail, Green plant response rating: preemergence
Summary of the method: as §1

wheat [21] = assay: Test C preemergence; format: in vivo, Triticum aestivum; details: 0 to 100 scale (0 no effect, 100 complete control); for Wheat plant response rating: preemergence
Summary of the method: as §1

soybean [22] = assay: Test C postemergence; format: in vivo, Glycine max; details: 10 days
Summary of the method: as §1

wheat [23] = assay: Test C postemergence; format: in vivo, Triticum aestivum; details: 10 days
Summary of the method: as §1

[24] = 125 g ai/ha, postemergence, 0 to 100 scale, 0 no effect, 100 complete control
[25] = Postemergence, 500 g ai/ha, visual 0 to 100 scale (0 no effect, 100 complete control)
[26] = Preemergence, 500 g ai/ha, visual rating after 10 days

## COC[C@H]1CN(C(=O)c2cc(-n3cnc(C4CC4)n3)ccc2C)c2cccc(Cl)c2O1 [Compound 266]
Ragweed [1]; 500 g ai/ha
  Ragweed plant response rating: 30
Ragweed [1]; Test C, 125 g ai/ha
  Ragweed plant response rating: 0
pigweed, palmer [2]; 500 g ai/ha
  Pigweed, Palmer plant response rating: 100
pigweed, palmer [2]; Test C, 125 g ai/ha
  Pigweed, Palmer plant response rating: 100
horseweed; [24]
  Plant response rating, Horseweed: 20
horseweed; [25]
  Plant response rating, Horseweed: 80
Ragweed [3]; [24]
  Plant response rating, Ragweed: 70
ryegrass, Italian [4]; [24]
  Plant response rating, Ryegrass, Italian: 70
Blackgrass [5]; [24]
  Plant response rating, Blackgrass: 50
Blackgrass [5]; [25]
  Plant response rating, Blackgrass: 80
ryegrass, Italian [6]; 500 g ai/ha
  Ryegrass, Italian plant response rating: 90
ryegrass, Italian [6]; Test C, 125 g ai/ha
  Ryegrass, Italian plant response rating: 80
Corn [7]; 500 g ai/ha
  Corn plant response rating: 40
Corn [7]; Test C, 125 g ai/ha
  Corn plant response rating: 20
galium; [24]
  Plant response rating, Galium: 100
galium; [25]
  Plant response rating, Galium: 100
Barnyardgrass [8]
  Plant response rating, Barnyardgrass: 80
Barnyardgrass [8]; Test C
  Barnyardgrass plant response rating: 50
sedge, umbrella
  Plant response rating, Sedge, Umbrella (Flood): 95
Barnyardgrass [9]
  Plant response rating, Barnyardgrass (Flood): 0
pigweed, palmer [10]; [24]
  Plant response rating, Pigweed, Palmer: 90
Barnyardgrass [11]; [24]
  Plant response rating, Barnyardgrass: 70
Barnyardgrass [11]; [25]
  Plant response rating, Barnyardgrass: 90
Blackgrass [12]
  Plant response rating, Blackgrass: 60
  Blackgrass plant response rating: 30
oat, wild [13]; 500 g ai/ha
  Oat, Wild plant response rating: 90
oat, wild [13]; Test C, 125 g ai/ha
  Oat, Wild plant response rating: 40
oat, wild [14]; [24]
  Plant response rating, Oat, Wild: 10
Kochia [15]; 500 g ai/ha
  Kochia plant response rating: 90
Kochia [15]; Test C, 125 g ai/ha
  Kochia plant response rating: 90
rice
  Plant response rating, Rice (Flood): 15
Kochia [16]; [24]
  Plant response rating, Kochia: 80
Green foxtail [17]; [24]
  Plant response rating, Foxtail, Green: 90
Green foxtail [17]; [25]
  Plant response rating, Foxtail, Green: 90
ducksalad
  Plant response rating, Ducksalad (Flood): 75
Soybean [18]; 500 g ai/ha
  Soybean plant response rating: 100
Soybean [18]; Test C, 125 g ai/ha
  Soybean plant response rating: 80
Corn [19]; [24]
  Plant response rating, Corn: 70
Corn [19]; [25]
  Plant response rating, Corn: 70
Green foxtail [20]; 500 g ai/ha
  Foxtail, Green plant response rating: 100
Green foxtail [20]; Test C, 125 g ai/ha
  Foxtail, Green plant response rating: 100
Wheat [21]; 500 g ai/ha
  Wheat plant response rating: 70
Wheat [21]; Test C, 125 g ai/ha
  Wheat plant response rating: 30
Soybean [22]; [24]
  Plant response rating, Soybean: 100
Wheat [23]; [24]
  Plant response rating, Wheat: 20

## C[C@H]1CN(C(=O)c2cc(-n3cnc(C(C)(C)C)n3)cc3c2OCCO3)c2cccc(Cl)c2O1 [Compound 154]
Ragweed [1]; [26]
  Plant response rating, Ragweed: 100
Ragweed [1]; Test C, 125 g ai/ha
  Ragweed plant response rating: 50
pigweed, palmer [2]; [26]
  Plant response rating, Pigweed, Palmer: 100
pigweed, palmer [2]; Test C, 125 g ai/ha
  Pigweed, Palmer plant response rating: 100
horseweed; [24]
  Plant response rating, Horseweed: 80
horseweed; [25]
  Plant response rating, Horseweed: 70
Ragweed [3]; [24]
  Plant response rating, Ragweed: 100
Ragweed [3]; [25]
  Plant response rating, Ragweed: 100
ryegrass, Italian [4]; [24]
  Plant response rating, Ryegrass, Italian: 30
ryegrass, Italian [4]; [25]
  Plant response rating, Ryegrass, Italian: 70
Blackgrass [5]; [24]
  Plant response rating, Blackgrass: 20
Blackgrass [5]; [25]
  Plant response rating, Blackgrass: 90
ryegrass, Italian [6]; [26]
  Plant response rating, Ryegrass, Italian: 90
ryegrass, Italian [6]; Test C, 125 g ai/ha
  Ryegrass, Italian plant response rating: 70
Corn [7]; [26]
  Plant response rating, Corn: 30
Corn [7]; Test C, 125 g ai/ha
  Corn plant response rating: 0
galium; [24]
  Plant response rating, Galium: 100
galium; [25]
  Plant response rating, Galium: 100
Barnyardgrass [8]
  Barnyardgrass plant response rating: 70
  Plant response rating, Barnyardgrass: 100
sedge, umbrella
  Plant response rating, Sedge, Umbrella (Flood): 70
Barnyardgrass [9]
  Plant response rating, Barnyardgrass (Flood): 15
pigweed, palmer [10]; [24]
  Plant response rating, Pigweed, Palmer: 90
pigweed, palmer [10]; [25]
  Plant response rating, Pigweed, Palmer: 100
Barnyardgrass [11]; [24]
  Plant response rating, Barnyardgrass: 20
Barnyardgrass [11]; [25]
  Plant response rating, Barnyardgrass: 50
Blackgrass [12]
  Plant response rating, Blackgrass: 60
  Blackgrass plant response rating: 20
oat, wild [13]; [26]
  Plant response rating, Oat, Wild: 30
oat, wild [13]; Test C, 125 g ai/ha
  Oat, Wild plant response rating: 20
oat, wild [14]; [24]
  Plant response rating, Oat, Wild: 10
oat, wild [14]; [25]
  Plant response rating, Oat, Wild: 20
Kochia [15]; [26]
  Plant response rating, Kochia: 100
Kochia [15]; Test C, 125 g ai/ha
  Kochia plant response rating: 100
rice
  Plant response rating, Rice (Flood): 10
Kochia [16]; [24]
  Plant response rating, Kochia: 100
Kochia [16]; [25]
  Plant response rating, Kochia: 100
Green foxtail [17]; [24]
  Plant response rating, Foxtail, Green: 40
Green foxtail [17]; [25]
  Plant response rating, Foxtail, Green: 90
ducksalad
  Plant response rating, Ducksalad (Flood): 10
Soybean [18]; [26]
  Plant response rating, Soybean: 100
Soybean [18]; Test C, 125 g ai/ha
  Soybean plant response rating: 40
Corn [19]; [24]
  Plant response rating, Corn: 20
Corn [19]; [25]
  Plant response rating, Corn: 50
Green foxtail [20]; [26]
  Plant response rating, Foxtail, Green: 100
Green foxtail [20]; Test C, 125 g ai/ha
  Foxtail, Green plant response rating: 100
Wheat [21]; [26]
  Plant response rating, Wheat: 60
Wheat [21]; Test C, 125 g ai/ha
  Wheat plant response rating: 10
Soybean [22]; [24]
  Plant response rating, Soybean: 90
Soybean [22]; [25]
  Plant response rating, Soybean: 100
Wheat [23]; [24]
  Plant response rating, Wheat: 10
Wheat [23]; [25]
  Plant response rating, Wheat: 30
